What was measured:
PHD3 (EGLN3) = biological target: T1, PHD3 (EGLN3) (Homo sapiens, UniProt Q9H6Z9); assay: MALDI-based assay EGLN3 prolyl hydroxylation of peptide; format: biochemical; details: MALDI-TOF, peptide substrate
T1 construct: Full length EGLN3 construct plasmid with; TEV-His (N); host or cells: E. coli BL21 (DE3)
Protocol: demethylation events on the peptide. The percent peak area was calculated, and the K27me2, me1,
and me0 peaks were summed to get the relative percent demethylated peptide.
MALDI-based assay for FTO and ALKBH5: To determine the enzymatic activity of FTO and
ALKBH5 recombinant proteins in the presence of L-Leu NOG 6, a previously published methods
were utilized.15, 18 Briefly,10 µM of each protein was incubated in the presence of 10 µM RNA
7.5, 150 mM KCl, 50 µM L-Leu NOG or equivalent volume of water in 10 µL aliquots. The
samples were placed on ice for 10 minutes followed by addition of 200 µM 2OG or equivalent
volume of water. After incubation at 37 °C for 30 minutes, samples were desalted with 3 µL of BT
spotted on a MALDI plate with 1uL sample and 1uL of 3-HPA matrix and monitored with Bruker
FlexControl in the reflectron negative mode and analyzed on Bruker FlexAnalysis software.
Relative inhibition was monitored via assessing percent product decrease with L-Leu NOG
MALDI-based assay for C14orf169 (NO66) and MINA: To monitor the enzymatic activity of […]
1 µL S-DHB matrix were spotted on a MALDI plate and monitored with Bruker FlexControl in
the reflectron positive mode and analyzed on Bruker FlexAnalysis software. […]
was monitored via assessing percent product decrease with L-Leu NOG samples compared to no […]
monitored following a reported method.19 To monitor the enzymatic activity of EGLN1 and 3 […]

[1] = biological target: T2, full-length wild type KDM4A (Homo sapiens, UniProt O75164); assay: H3K9me3 Western blot of nuclear extracts of transfected HEK293T cells; format: cell-based; details: 10 μM n-octyl IOX1, Western blot
T2 construct: Expression of full-length KDM4A-E and their mutants in HEK293T cells; host or cells: HEK293T
Protocol: To test the orthogonality of NOL toward wild type KDM4A, HEK293T cells, either nontransfected or transfected with KDM4A, were individually treated with DMSO, 400 μM 6A or 10 μM n-octyl IOX1, a nonspecific inhibitor of 2OG enzymes. […] To further probe for off-target effects of 6 on endogenous 2OG enzymes, HEK293T cells were cultured with DMSO or 400 μM 6A and examined for several postsynthetic modifications catalyzed by these dioxygenases. Key trimethylated lysine marks on extracted histone were analyzed by Western blot using corresponding antibodies (Figure S31). […] Similarly, no change in prolyl hydroxylation was detected when cellular extracts were subjected to the pan hydroxyproline antibody.
KDM4A mammalian expression plasmid in CMV vector was purchased from Addgene (plasmid #24180). KDM4B mammalian expression plasmid in CMV vector was purchased from Addgene (plasmid #24181). KDM4C mammalian expression plasmid in CMV vector was purchased from Addgene (plasmid #24214). KDM4D mammalian expression plasmid in pReciever vector was purchased from Genecopoia (EX-Z0917-M06.) KDME mammalian expression plasmid in pRP-EXP was designed from Vector Builder. […]
20. Quantification of fixed-cell imaging data
TIF images obtained from confocal microscopy experiments were quantified in ImageJ. […]

T2 sequence (O75164 whole entry): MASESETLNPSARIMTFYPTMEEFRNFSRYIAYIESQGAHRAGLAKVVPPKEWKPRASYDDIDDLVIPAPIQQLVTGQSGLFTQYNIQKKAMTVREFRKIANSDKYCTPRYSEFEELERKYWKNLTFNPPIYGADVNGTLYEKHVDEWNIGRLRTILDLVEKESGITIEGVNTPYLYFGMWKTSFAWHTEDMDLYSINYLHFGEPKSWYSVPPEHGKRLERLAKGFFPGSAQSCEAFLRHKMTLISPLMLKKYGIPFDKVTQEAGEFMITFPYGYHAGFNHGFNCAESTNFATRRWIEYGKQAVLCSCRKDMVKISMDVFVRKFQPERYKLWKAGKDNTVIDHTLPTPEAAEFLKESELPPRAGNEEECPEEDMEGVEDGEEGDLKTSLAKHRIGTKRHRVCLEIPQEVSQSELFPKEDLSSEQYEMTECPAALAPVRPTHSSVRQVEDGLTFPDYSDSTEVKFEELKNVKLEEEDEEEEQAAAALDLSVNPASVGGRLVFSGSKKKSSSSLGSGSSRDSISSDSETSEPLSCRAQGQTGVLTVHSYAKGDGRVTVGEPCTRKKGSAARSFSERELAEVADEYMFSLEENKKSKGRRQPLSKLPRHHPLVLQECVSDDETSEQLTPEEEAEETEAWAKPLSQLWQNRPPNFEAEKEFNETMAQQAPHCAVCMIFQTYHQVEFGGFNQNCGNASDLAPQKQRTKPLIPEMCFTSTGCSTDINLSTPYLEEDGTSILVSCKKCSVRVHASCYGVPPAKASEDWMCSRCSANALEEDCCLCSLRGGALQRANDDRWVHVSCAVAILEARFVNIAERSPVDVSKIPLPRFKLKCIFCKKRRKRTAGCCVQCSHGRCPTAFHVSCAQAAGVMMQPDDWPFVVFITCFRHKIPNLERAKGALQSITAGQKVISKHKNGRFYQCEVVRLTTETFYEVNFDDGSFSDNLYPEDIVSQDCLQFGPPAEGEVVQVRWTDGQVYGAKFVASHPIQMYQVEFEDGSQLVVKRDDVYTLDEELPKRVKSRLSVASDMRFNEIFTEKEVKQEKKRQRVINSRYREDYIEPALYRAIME
T1 sequence (Q9H6Z9 whole entry): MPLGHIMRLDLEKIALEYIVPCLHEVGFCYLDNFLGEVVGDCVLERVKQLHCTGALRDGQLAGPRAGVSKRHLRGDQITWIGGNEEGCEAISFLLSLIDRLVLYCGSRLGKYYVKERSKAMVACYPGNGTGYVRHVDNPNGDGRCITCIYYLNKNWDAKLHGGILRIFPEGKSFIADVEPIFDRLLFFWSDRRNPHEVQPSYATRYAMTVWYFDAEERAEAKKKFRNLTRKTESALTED

inhibition of wild type KDM4A H3K9me3 demethylation [1] | inhibition of wild type KDM4A H3K9me3 demethylation ([1]; listed as IOX1) | SMILES | inhibition of PHD3 (PHD3 (EGLN3))
– | – | CC(C)CC(NC(=O)C(=O)O)C(=O)O (stereo not drawn) [compound 6, N-oxalyl leucine] | No inhibition
Inhibition | strongly inhibited | CCCCCCCCOC(=O)c1ccc(O)c2ncccc12 [n-octyl IOX1] | –

— article PMC11783601, “Analogue-Sensitive Inhibition of Histone Demethylases Uncovers Member-Specific Function in Ribosomal Protein Synthesis” (Journal of the American Chemical Society, 2025)
